Measurements from US20250009709A1, “PRENYLATED CHALCONE AND FLAVONOID COMPOSITIONS FOR USE IN TREATING CANCER” (INNOX CORP., priority 2021, published 2025).

System: pCrkl
Assay: pCrkl level in K562-IS cells
Assay type: cell-based
Details: 1000 nM imatinib, data not shown
Experimental: The effect of the drug substance on chronic myelogenous leukemic (CML) cells was tested using a K562 cell line model.

## Cc1ccc(NC(=O)c2ccc(CN3CCN(C)CC3)cc2)cc1Nc1nccc(-c2cccnc2)n1 [imatinib]
  pCrkl level in comparison with non-treated controls: did not significantly change
